Assay results taken from US20250179066A1, “ZWITTERIONIC ANTIBACTERIAL COMPOUNDS” (Hoffmann-La Roche Inc., priority 2022, published 2025).
Counter-ions that a name gives are not always drawn.

System: Acinetobacter baumannii ATCC17961
Assay: Antimicrobial susceptibility testing: 90% growth inhibitory concentration (IC90) determination
Type: cell-based
Settings: Acinetobacter baumannii, ATCC17961, 16 h, 90% growth inhibitory concentration against Acinetobacter baumannii ATCC17961, Iso-Sensitest broth, OD 600 nm over 16 h; read-out: ATCC 17961 IC90
Outline: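 Twofold serial dilutions (e.g. 10 to 0.0195 μM final) in Iso-Sensitest broth inoculated at ~5×10^5 CFU/mL, incubated at 35±2° C. OD600 read every minute for 16 h; IC90 is the concentration inhibiting 90% of growth during logarithmic phase.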

| SMILES | IC90 |
| --- | --- |
| CC(C)Nc1ccc(-n2cc(-c3cnc(C(=O)Nc4ccc(C(=O)N5CCN(C(=O)C6CC[N+](CC(=O)O)(CC7CNC7)CC6)CC5)c(Cl)c4)n3C)c(C(F)(F)F)n2)nc1 (stereo not shown) [Example 40, 2-[1-(azetidin-3-ylmethyl)-4-[4-[2-chloro-4-[[5-[1-[5-(isopropylamino)-2-pyridyl]-3-(trifluoromethyl)pyrazol-4-yl]-1-methyl-imidazole-2-carbonyl]amino]benzoyl]piperazine-1-carbonyl]piperidin-1-ium-1-yl]acetic acid. 1:1 formate] | 430 nM |
| Cn1c(-c2cn(-c3ccc(O)cn3)nc2C(F)(F)F)cnc1C(=O)Nc1ccc(C(=O)N2CCN(C(=O)C3CC[N+](CC(=O)O)(CC4CNC4)CC3)CC2)c(Cl)c1 (stereo not shown) [Example 54, 2-[1-(azetidin-3-ylmethyl)-4-[4-[2-chloro-4-[[5-[1-(5-hydroxy-2-pyridyl)-3-(trifluoromethyl)pyrazol-4-yl]-1-methyl-imidazole-2-carbonyl]amino]benzoyl]piperazine-1-carbonyl]piperidin-1-ium-1-yl]acetic acid. 1:1 2,2,2-trifluoroacetate] | 550 nM |
| Cn1c(-c2cn(-c3ccc(NC[C@@H]4C[C@H](F)CN4)cn3)nc2C(F)(F)F)cnc1C(=O)Nc1ccc(C(=O)N2CCN(C(=O)C3CC[N+](CC(=O)O)(CC4CNC4)CC3)CC2)c(Cl)c1 (stereo partly drawn) [Example 57, 2-[1-(azetidin-3-ylmethyl)-4-[4-[2-chloro-4-[[5-[1-[5-[[(2S,4S)-4-fluoropyrrolidin-2-yl]methylamino]-2-pyridyl]-3-(trifluoromethyl)pyrazol-4-yl]-1-methyl-imidazole-2-carbonyl]amino]benzoyl]piperazine-1-carbonyl]piperidin-1-ium-1-yl]acetic acid. 1:1 2,2,2-trifluoroacetic acid. 1:1 2,2,2-trifluoroacetate] | 610 nM |
| CN(C)c1ccc(-n2cc(-c3cnc(C(=O)Nc4ccc(C(=O)N5CCN(C(=O)C6CC[N+](CC(=O)O)(CC7CNC7)CC6)CC5)c(Cl)c4)n3C)c(C(F)(F)F)n2)cn1 (stereo not shown) [Example 49, 2-[1-(azetidin-3-ylmethyl)-4-[4-[2-chloro-4-[[5-[1-[6-(dimethylamino)-3-pyridyl]-3-(trifluoromethyl)pyrazol-4-yl]-1-methyl-imidazole-2-carbonyl]amino]benzoyl]piperazine-1-carbonyl]piperidin-1-ium-1-yl]acetic acid. 1:1 2,2,2-trifluoroacetate] | 520 nM |
| Cn1c(-c2cn(-c3ccc(N)cn3)nc2C(F)(F)F)cnc1C(=O)Nc1ccc(C(=O)N2CCN(C(=O)[C@H]3CC[N@+](CCCN)(CC(=O)O)CC3)CC2)c(Cl)c1 [Example 48, trans-2-[1-(3-aminopropyl)-4-[4-[4-[[5-[1-(5-amino-2-pyridyl)-3-(trifluoromethyl)pyrazol-4-yl]-1-methyl-imidazole-2-carbonyl]amino]-2-chloro-benzoyl]piperazine-1-carbonyl]piperidin-1-ium-1-yl]acetic acid. 1:1 2,2,2-trifluoroacetate] | 510 nM |
| Cn1c(-c2cn(-c3ccc(NC[C@@H]4CCCN4)cn3)nc2C(F)(F)F)cnc1C(=O)Nc1ccc(C(=O)N2CCN(C(=O)C3CC[N+](CC(=O)O)(CC4CNC4)CC3)CC2)c(Cl)c1 (stereo partly drawn) [Example 28, 2-[1-(azetidin-3-ylmethyl)-4-[4-[2-chloro-4-[[1-methyl-5-[1-[5-[[(2S)-pyrrolidin-2-yl]methylamino]-2-pyridyl]-3-(trifluoromethyl)pyrazol-4-yl]imidazole-2-carbonyl]amino]benzoyl]piperazine-1-carbonyl]piperidin-1-ium-1-yl]acetic acid. 1:1 2,2,2-trifluoroacetic acid. 1:1 2,2,2-trifluoroacetate] | 360 nM |
| CN(C)c1ccc(-n2cc(-c3cnc(C(=O)Nc4ccc(C(=O)N5CCN(C(=O)C6CC[N+](CC(=O)O)(CC7CNC7)CC6)CC5)c(Cl)c4)n3C)c(C(F)(F)F)n2)nc1 (stereo not shown) [Example 45, 2-[1-(azetidin-3-ylmethyl)-4-[4-[2-chloro-4-[[5-[1-[5-(dimethylamino)-2-pyridyl]-3-(trifluoromethyl)pyrazol-4-yl]-1-methyl-imidazole-2-carbonyl]amino]benzoyl]piperazine-1-carbonyl]piperidin-1-ium-1-yl]acetic acid. 1:1 formate] | 500 nM |
| Cn1c(-c2cn(-c3ccc(CCN)cn3)nc2C(F)(F)F)cnc1C(=O)Nc1ccc(C(=O)N2CCN(C(=O)C3CC[N+](CC(=O)O)(CC4CNC4)CC3)CC2)c(Cl)c1 (stereo not shown) [Example 1, 2-[4-[4-[4-[[5-[1-[5-(2-Aminoethyl)-2-pyridyl]-3-(trifluoromethyl)pyrazol-4-yl]-1-methyl-imidazole-2-carbonyl]amino]-2-chloro-benzoyl]piperazine-1-carbonyl]-1-(azetidin-3-ylmethyl)piperidin-1-ium-1-yl]acetic Acid.1:1 2,2,2-trifluoroacetic Acid.1:1 2,2,2-trifluoroacetate] | 330 nM |

The next lines start with the values.

| IC90 | SMILES |
| --- | --- |
| 355 nM | Cn1c(-c2cn(-c3ccc4[nH]c(CCN)cc4n3)nc2C(F)(F)F)cnc1C(=O)Nc1ccc(C(=O)N2CCN(C(=O)[C@H]3CC[N@+](CC(=O)O)(CC4CNC4)CC3)CC2)c(Cl)c1 [Example 129, cis-2-[4-[4-[4-[[5-[1-[2-(2-aminoethyl)-1H-pyrrolo[3,2-b]pyridin-5-yl]-3-(trifluoromethyl)pyrazol-4-yl]-1-methyl-imidazole-2-carbonyl]amino]-2-chloro-benzoyl]piperazine-1-carbonyl]-1-(azetidin-3-ylmethyl)piperidin-1-ium-1-yl]acetic acid; chloride] |
| 281 nM | Cn1c(-c2cn(-c3ccc4[nH]c(CO)cc4n3)nc2C(F)(F)F)cnc1C(=O)Nc1ccc(C(=O)N2CCN(C(=O)[C@H]3CC[N@@+](CCCN)(CC(=O)O)CC3)CC2)c(Cl)c1 [Example 171, cis-2-[1-(3-aminopropyl)-4-[4-[2-chloro-4-[[1-methyl-5-[1-(2-methylol-1H-pyrrolo[3,2-b]pyridin-5-yl)-3-(trifluoromethyl)pyrazol-4-yl]imidazole-2-carbonyl]amino]benzoyl]piperazine-1-carbonyl]piperidin-1-ium-1-yl]acetic acid. 1:1 2,2,2-trifluoroacetate] |
| 680 nM | Cn1c(-c2cn(-c3n[nH]c4ccccc34)nc2C(F)(F)F)cnc1C(=O)Nc1ccc(C(=O)N2CCN(C(=O)C3CC[N+](CC(=O)O)(CC4CNC4)CC3)CC2)c(Cl)c1 (stereo not shown) [Example 62, 2-[1-(azetidin-3-ylmethyl)-4-[4-[2-chloro-4-[[5-[1-(1H-indazol-3-yl)-3-(trifluoromethyl)pyrazol-4-yl]-1-methyl-imidazole-2-carbonyl]amino]benzoyl]piperazine-1-carbonyl]piperidin-1-ium-1-yl]acetic acid;formate] |
| 352 nM | Cn1c(-c2cn(-c3cc4[nH]ncc4cn3)nc2C(F)(F)F)cnc1C(=O)Nc1ccc(C(=O)N2CCN(C(=O)[C@H]3CC[N@+](CC(=O)O)(CC4CNC4)CC3)CC2)c(Cl)c1 [Example 173, cis-2-[1-(azetidin-3-ylmethyl)-4-[4-[2-chloro-4-[[1-methyl-5-[1-(1H-pyrazolo[4,3-c]pyridin-6-yl)-3-(trifluoromethyl)pyrazol-4-yl]imidazole-2-carbonyl]amino]benzoyl]piperazine-1-carbonyl]piperidin-1-ium-1-yl]acetic acid. 1:1 2,2,2-trifluoroacetate] |
| 1660 nM | Cn1c(-c2cn(-c3ccc(N)cn3)nc2C(F)(F)F)cnc1C(=O)Nc1ccc(C(=O)N2CCN(C(=O)C3CC[N+](CC(=O)O)(CC4CNC4)CC3)CC23CC3)c(Cl)c1 (stereo not shown) [Example 93, 2-[4-[4-[4-[[5-[1-(5-amino-2-pyridyl)-3-(trifluoromethyl)pyrazol-4-yl]-1-methyl-imidazole-2-carbonyl]amino]-2-chloro-benzoyl]-4,7-diazaspiro[2.5]octane-7-carbonyl]-1-(azetidin-3-ylmethyl)piperidin-1-ium-1-yl]acetic acid. 1:1 formate] |
| 334 nM | Cn1c(-c2cn(-c3ccc(N)cc3F)nc2C(F)(F)F)cnc1C(=O)Nc1ccc(C(=O)N2CCN(C(=O)N3CC[N+](CC(=O)O)(CC4CNC4)CC3)CC2)c(Cl)c1 [Example 140, 2-[4-[4-[4-[[5-[1-(4-amino-2-fluoro-phenyl)-3-(trifluoromethyl)pyrazol-4-yl]-1-methyl-imidazole-2-carbonyl]amino]-2-chloro-benzoyl]piperazine-1-carbonyl]-1-(azetidin-3-ylmethyl)piperazin-1-ium-1-yl]acetic acid. 1:1 2,2,2-trifluoroacetate] |
| 185 nM | Cn1c(-c2cn(-c3ccc(N(CCN)CCN)cn3)nc2C(F)(F)F)cnc1C(=O)Nc1ccc(C(=O)N2CCN(C(=O)[C@H]3CC[N@+](CC(=O)O)(CC4CNC4)CC3)CC2)c(Cl)c1 [Example 196, cis-2-[1-(azetidin-3-ylmethyl)-4-[4-[4-[[5-[1-[5-[bis(2-aminoethyl)amino]-2-pyridyl]-3-(trifluoromethyl)pyrazol-4-yl]-1-methyl-imidazole-2-carbonyl]amino]-2-chloro-benzoyl]piperazine-1-carbonyl]piperidin-1-ium-1-yl]acetic acid;formic acid;formate] |
| 649 nM | Cn1c(-c2cn(-c3ncc4[nH]ccc4n3)nc2C(F)(F)F)cnc1C(=O)Nc1ccc(C(=O)N2CCN(C(=O)[C@H]3CC[N@+](CC(=O)O)(CC4CNC4)CC3)CC2)c(Cl)c1 [Example 165, cis-2-[1-(azetidin-3-ylmethyl)-4-[4-[2-chloro-4-[[1-methyl-5-[1-(5H-pyrrolo[3,2-d]pyrimidin-2-yl)-3-(trifluoromethyl)pyrazol-4-yl]imidazole-2-carbonyl]amino]benzoyl]piperazine-1-carbonyl]piperidin-1-ium-1-yl]acetic acid;formate] |
